In ChEMBL document CHEMBL1275492, “In vitro activity of ceftobiprole against pathogens from two phase 3 clinical trials of complicated skin and skin structure infections” (2008):
≈ marks a conversion by molar mass, not a printed value.

Columns and labels:
Format in all cases: functional
Staphylococcus capitis = test: Antibacterial activity against coagulase-negative Staphylococcus capitis obtained from complicated skin and skin structure infections by agar dilution method
Staphylococcus cohnii = test: Antibacterial activity against coagulase-negative Staphylococcus cohnii obtained from complicated skin and skin structure infections by agar dilution method
Staphylococcus aureus [1] = test: Antibacterial activity against methicillin resistant Staphylococcus aureus obtained from complicated skin and skin structure infections by agar dilution method
Lactococcus lactis = test: Antibacterial activity against Lactococcus lactis obtained from complicated skin and skin structure infections by agar dilution method
[2] = test system: Staphylococcus lugdunensis; test: Antibacterial activity against methicillin-resistant, oxacillin-susceptible, coagulase-negative, mecA-positive Staphylococcus lugdunensis obtained from complicated skin and skin structure infections by agar dilution method
Gemella morbillorum = test: Antibacterial activity against Gemella morbillorum obtained from complicated skin and skin structure infections […]
Staphylococcus = test: Antibacterial activity against methicillin-susceptible, coagulase-negative Staphylococcus obtained from complicated skin and skin structure infections by agar dilution method
[3] = test system: Streptococcus constellatus; test: Antibacterial activity against Streptococcus constellatus obtained from complicated skin and skin structure infections by agar dilution method
Bacillus = test: Antibacterial activity against Bacillus spp. obtained from complicated skin and skin structure infections by agar dilution method
Aerococcus viridans = test: Antibacterial activity against Aerococcus viridans obtained from complicated skin and skin structure infections by agar dilution method
[4] = test system: Staphylococcus intermedius; test: Antibacterial activity against Staphylococcus intermedius obtained from complicated skin and skin structure infections by agar dilution method
Streptococcus mitis = test: Antibacterial activity against Streptococcus mitis obtained from complicated skin and skin structure infections by agar dilution method
[5] = test system: Staphylococcus saprophyticus; test: Antibacterial activity against coagulase-negative Staphylococcus saprophyticus obtained from complicated skin and skin structure infections by agar dilution method
[6] = test system: Staphylococcus epidermidis; test: Antibacterial activity against coagulase-negative Staphylococcus epidermidis obtained from complicated skin and skin structure infections by agar dilution method
Mammaliicoccus sciuri = test: Antibacterial activity against coagulase-negative Staphylococcus sciuri obtained from complicated skin and skin structure infections by agar dilution method
Micrococcus = test: Antibacterial activity against Micrococcus spp. obtained from complicated skin and skin structure infections by agar dilution method
Gemella = test: Antibacterial activity against Gemella spp. obtained from complicated skin and skin structure infections by agar dilution method
[7] = test system: Staphylococcus haemolyticus; test: Antibacterial activity against coagulase-negative Staphylococcus haemolyticus obtained from complicated skin and skin structure infections by agar dilution method
Staphylococcus warneri = test: Antibacterial activity against coagulase-negative Staphylococcus warneri obtained from complicated skin and skin structure infections by agar dilution method
Staphylococcus hominis = test: Antibacterial activity against coagulase-negative Staphylococcus hominis obtained from complicated skin and skin structure infections by agar dilution method
[8] = test system: Staphylococcus lugdunensis; test: Antibacterial activity against coagulase-negative Staphylococcus lugdunensis obtained from complicated skin and skin structure infections by agar dilution method
Staphylococcus aureus [9] = test: Antibacterial activity against methicillin susceptible Staphylococcus aureus obtained from complicated skin and skin structure infections by agar dilution method
Staphylococcus aureus [10] = test: Antibacterial activity against Staphylococcus aureus obtained from complicated skin and skin structure infections by agar dilution method
Proteus penneri = test: Antibacterial activity against Proteus penneri obtained from complicated skin and skin structure infections by agar dilution method
Citrobacter braakii = test: Antibacterial activity against Citrobacter braakii obtained from complicated skin and skin structure infections by agar dilution method
Klebsiella oxytoca = test: Antibacterial activity against Klebsiella oxytoca obtained from complicated skin and skin structure infections by agar dilution method
Salmonella = test: Antibacterial activity against Salmonella spp. obtained from complicated skin and skin structure infections by agar dilution method
Pseudomonas aeruginosa = test: Antibacterial activity against Pseudomonas aeruginosa obtained from complicated skin and skin structure infections by agar dilution method
Morganella morganii = test: Antibacterial activity against Morganella morganii obtained from complicated skin and skin structure infections by agar dilution method
Klebsiella aerogenes = test: Antibacterial activity against Enterobacter aerogenes obtained from complicated skin and skin structure infections by agar dilution method
Proteus mirabilis = test: Antibacterial activity against Proteus mirabilis obtained from complicated skin and skin structure infections by agar dilution method
Acinetobacter baumannii = test: Antibacterial activity against Acinetobacter baumannii obtained from complicated skin and skin structure infections by agar dilution method
Proteus vulgaris = test: Antibacterial activity against Proteus vulgaris obtained from complicated skin and skin structure infections by agar dilution method
Serratia marcescens = test: Antibacterial activity against Serratia marcescens obtained from complicated skin and skin structure infections by agar dilution method
Escherichia coli = test: Antibacterial activity against Escherichia coli obtained from complicated skin and skin structure infections by agar dilution method
Klebsiella pneumoniae = test: Antibacterial activity against Klebsiella pneumoniae obtained from complicated skin and skin structure infections by agar dilution method
Pseudomonas fluorescens = test: Antibacterial activity against Pseudomonas fluorescens obtained from complicated skin and skin structure infections by agar dilution method
[11] = test system: Stenotrophomonas maltophilia; test: Antibacterial activity against Stenotrophomonas maltophilia obtained from complicated skin and skin structure infections by agar dilution method
Enterobacter amnigenus = test: Antibacterial activity against Enterobacter amnigenus obtained from complicated skin and skin structure infections by agar dilution method; conditions: Lelliottia amnigena
Providencia stuartii = test: Antibacterial activity against Providencia stuartii obtained from complicated skin and skin structure infections by agar dilution method
Citrobacter freundii = test: Antibacterial activity against Citrobacter freundii obtained from complicated skin and skin structure infections by agar dilution method

Cc1onc(-c2ccccc2)c1C(=O)N[C@@H]1C(=O)N2[C@@H]1SC(C)(C)[C@@H]2C(=O)O [OXACILLIN]
MIC50 (Staphylococcus capitis): 0.5 µg/mL (≈ 1.25 µM) | MIC90 (Staphylococcus capitis): > 8 µg/mL | MIC50 (Staphylococcus cohnii): 0.5 µg/mL (≈ 1.25 µM) | MIC90 (Staphylococcus cohnii): > 8 µg/mL | MIC50 (Staphylococcus aureus [1]): 16 µg/mL (≈ 39.9 µM) | MIC90 (Staphylococcus aureus [1]): > 32 µg/mL | MIC50 (Lactococcus lactis): 0.25 µg/mL (≈ 0.623 µM) | MIC90 (Lactococcus lactis): > 8 µg/mL | MIC50 [2]: 4 µg/mL (≈ 9.96 µM) | MIC90 [2]: 32 µg/mL (≈ 79.7 µM) | MIC50 (Gemella morbillorum): 0.25 µg/mL (≈ 0.623 µM) | MIC90 (Gemella morbillorum): > 8 µg/mL | MIC50 (Staphylococcus): 0.12 µg/mL (≈ 0.299 µM) | MIC90 (Staphylococcus): 0.25 µg/mL (≈ 0.623 µM) | MIC50 [3]: 0.12 µg/mL (≈ 0.299 µM) | MIC90 [3]: 0.25 µg/mL (≈ 0.623 µM) | MIC50 (Bacillus): 0.25 µg/mL (≈ 0.623 µM) | MIC90 (Bacillus): > 8 µg/mL | MIC50 (Aerococcus viridans): 0.25 µg/mL (≈ 0.623 µM) | MIC90 (Aerococcus viridans): > 8 µg/mL | MIC [4]: 0.25 µg/mL (≈ 0.623 µM) | MIC50 [4]: 0.25 µg/mL (≈ 0.623 µM) | MIC90 [4]: 1 µg/mL (≈ 2.49 µM) | MIC (Streptococcus mitis): 0.25 µg/mL (≈ 0.623 µM) | MIC50 (Streptococcus mitis): 0.25 µg/mL (≈ 0.623 µM) | MIC90 (Streptococcus mitis): 1 µg/mL (≈ 2.49 µM) | MIC50 [5]: 0.5 µg/mL (≈ 1.25 µM) | MIC90 [5]: > 8 µg/mL | MIC50 [6]: 0.5 µg/mL (≈ 1.25 µM) | MIC90 [6]: > 8 µg/mL | MIC50 (Mammaliicoccus sciuri): 0.5 µg/mL (≈ 1.25 µM) | MIC90 (Mammaliicoccus sciuri): > 8 µg/mL | MIC50 (Micrococcus): 0.25 µg/mL (≈ 0.623 µM) | MIC90 (Micrococcus): > 8 µg/mL | MIC50 (Gemella): 0.25 µg/mL (≈ 0.623 µM) | MIC90 (Gemella): > 8 µg/mL | MIC50 [7]: 0.5 µg/mL (≈ 1.25 µM) | MIC90 [7]: > 8 µg/mL | MIC50 (Staphylococcus warneri): 0.5 µg/mL (≈ 1.25 µM) | MIC90 (Staphylococcus warneri): > 8 µg/mL | MIC50 (Staphylococcus hominis): 0.5 µg/mL (≈ 1.25 µM) | MIC90 (Staphylococcus hominis): > 8 µg/mL | MIC50 [8]: 0.5 µg/mL (≈ 1.25 µM) | MIC90 [8]: > 8 µg/mL | MIC50 (Staphylococcus aureus [9]): 0.25 µg/mL (≈ 0.623 µM) | MIC90 (Staphylococcus aureus [9]): 0.5 µg/mL (≈ 1.25 µM) | MIC50 (Staphylococcus aureus [10]): 0.5 µg/mL (≈ 1.25 µM) | MIC90 (Staphylococcus aureus [10]): 32 µg/mL (≈ 79.7 µM)

CO/N=C(\C(=O)N[C@@H]1C(=O)N2C(C(=O)[O-])=C(C[N+]3(C)CCCC3)CS[C@H]12)c1csc(N)n1
MIC50 (Proteus penneri): 0.06 µg/mL (≈ 0.125 µM) | MIC90 (Proteus penneri): 4 µg/mL (≈ 8.32 µM) | MIC50 (Citrobacter braakii): 0.06 µg/mL (≈ 0.125 µM) | MIC90 (Citrobacter braakii): 4 µg/mL (≈ 8.32 µM) | MIC50 (Klebsiella oxytoca): 0.06 µg/mL (≈ 0.125 µM) | MIC90 (Klebsiella oxytoca): 4 µg/mL (≈ 8.32 µM) | MIC50 (Salmonella): 0.06 µg/mL (≈ 0.125 µM) | MIC90 (Salmonella): 4 µg/mL (≈ 8.32 µM) | MIC50 (Pseudomonas aeruginosa): 4 µg/mL (≈ 8.32 µM) | MIC90 (Pseudomonas aeruginosa): 64 µg/mL (≈ 133 µM) | MIC50 (Morganella morganii): 0.03 µg/mL (≈ 0.0624 µM) | MIC90 (Morganella morganii): > 64 µg/mL | MIC50 (Klebsiella aerogenes): 0.06 µg/mL (≈ 0.125 µM) | MIC90 (Klebsiella aerogenes): 4 µg/mL (≈ 8.32 µM) | MIC50 (Proteus mirabilis): 0.06 µg/mL (≈ 0.125 µM) | MIC90 (Proteus mirabilis): 1 µg/mL (≈ 2.08 µM) | MIC50 (Acinetobacter baumannii): > 16 µg/mL | MIC90 (Acinetobacter baumannii): 32 µg/mL (≈ 66.6 µM) | MIC50 (Proteus vulgaris): 0.06 µg/mL (≈ 0.125 µM) | MIC90 (Proteus vulgaris): 4 µg/mL (≈ 8.32 µM) | MIC50 (Serratia marcescens): 0.06 µg/mL (≈ 0.125 µM) | MIC90 (Serratia marcescens): 4 µg/mL (≈ 8.32 µM) | MIC50 (Escherichia coli): 0.03 µg/mL (≈ 0.0624 µM) | MIC90 (Escherichia coli): 0.12 µg/mL (≈ 0.25 µM) | MIC50 (Klebsiella pneumoniae): ≤ 0.12 µg/mL | MIC90 (Klebsiella pneumoniae): 1 µg/mL (≈ 2.08 µM) | MIC50 (Pseudomonas fluorescens): > 16 µg/mL | MIC90 (Pseudomonas fluorescens): 32 µg/mL (≈ 66.6 µM) | MIC50 [11]: > 16 µg/mL | MIC90 [11]: 32 µg/mL (≈ 66.6 µM) | MIC50 (Enterobacter amnigenus): 0.06 µg/mL (≈ 0.125 µM) | MIC90 (Enterobacter amnigenus): 4 µg/mL (≈ 8.32 µM) | MIC50 (Providencia stuartii): 0.06 µg/mL (≈ 0.125 µM) | MIC90 (Providencia stuartii): 4 µg/mL (≈ 8.32 µM) | MIC50 (Citrobacter freundii): 0.06 µg/mL (≈ 0.125 µM) | MIC90 (Citrobacter freundii): 4 µg/mL (≈ 8.32 µM)
